According to ChEMBL document CHEMBL4507319 (2021):

Columns and labels:
[1] = target: T1, Tyrosine-protein kinase ZAP-70 (Homo sapiens) (UniProt P43403); conditions: Compound concentration 1000.0 nM
T1 sequence (whole entry): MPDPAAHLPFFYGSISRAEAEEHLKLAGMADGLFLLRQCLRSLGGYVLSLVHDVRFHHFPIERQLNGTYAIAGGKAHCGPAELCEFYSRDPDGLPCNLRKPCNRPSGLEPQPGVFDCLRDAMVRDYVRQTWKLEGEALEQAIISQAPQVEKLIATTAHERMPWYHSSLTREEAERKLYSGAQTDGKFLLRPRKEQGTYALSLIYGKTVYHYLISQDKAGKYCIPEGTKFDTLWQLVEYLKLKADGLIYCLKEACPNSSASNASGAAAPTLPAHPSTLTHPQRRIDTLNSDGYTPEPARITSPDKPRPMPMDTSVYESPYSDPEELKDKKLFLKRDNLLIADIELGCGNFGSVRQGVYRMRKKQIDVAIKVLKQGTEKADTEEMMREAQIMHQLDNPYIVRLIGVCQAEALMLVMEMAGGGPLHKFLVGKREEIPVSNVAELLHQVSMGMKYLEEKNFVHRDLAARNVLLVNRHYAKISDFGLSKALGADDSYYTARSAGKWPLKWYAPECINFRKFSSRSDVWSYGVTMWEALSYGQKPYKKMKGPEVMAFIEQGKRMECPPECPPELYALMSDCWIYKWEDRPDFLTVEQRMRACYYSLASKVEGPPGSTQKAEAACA

[2] = system: Epidermal growth factor receptor (Homo sapiens), P00533 [UNDEFINED MUTATION]; conditions: Compound concentration 1000.0 nM
Chain of Epidermal growth factor receptor (Homo sapiens), P00533 [UNDEFINED MUTATION] (P00533 whole entry, looked up, change not shown): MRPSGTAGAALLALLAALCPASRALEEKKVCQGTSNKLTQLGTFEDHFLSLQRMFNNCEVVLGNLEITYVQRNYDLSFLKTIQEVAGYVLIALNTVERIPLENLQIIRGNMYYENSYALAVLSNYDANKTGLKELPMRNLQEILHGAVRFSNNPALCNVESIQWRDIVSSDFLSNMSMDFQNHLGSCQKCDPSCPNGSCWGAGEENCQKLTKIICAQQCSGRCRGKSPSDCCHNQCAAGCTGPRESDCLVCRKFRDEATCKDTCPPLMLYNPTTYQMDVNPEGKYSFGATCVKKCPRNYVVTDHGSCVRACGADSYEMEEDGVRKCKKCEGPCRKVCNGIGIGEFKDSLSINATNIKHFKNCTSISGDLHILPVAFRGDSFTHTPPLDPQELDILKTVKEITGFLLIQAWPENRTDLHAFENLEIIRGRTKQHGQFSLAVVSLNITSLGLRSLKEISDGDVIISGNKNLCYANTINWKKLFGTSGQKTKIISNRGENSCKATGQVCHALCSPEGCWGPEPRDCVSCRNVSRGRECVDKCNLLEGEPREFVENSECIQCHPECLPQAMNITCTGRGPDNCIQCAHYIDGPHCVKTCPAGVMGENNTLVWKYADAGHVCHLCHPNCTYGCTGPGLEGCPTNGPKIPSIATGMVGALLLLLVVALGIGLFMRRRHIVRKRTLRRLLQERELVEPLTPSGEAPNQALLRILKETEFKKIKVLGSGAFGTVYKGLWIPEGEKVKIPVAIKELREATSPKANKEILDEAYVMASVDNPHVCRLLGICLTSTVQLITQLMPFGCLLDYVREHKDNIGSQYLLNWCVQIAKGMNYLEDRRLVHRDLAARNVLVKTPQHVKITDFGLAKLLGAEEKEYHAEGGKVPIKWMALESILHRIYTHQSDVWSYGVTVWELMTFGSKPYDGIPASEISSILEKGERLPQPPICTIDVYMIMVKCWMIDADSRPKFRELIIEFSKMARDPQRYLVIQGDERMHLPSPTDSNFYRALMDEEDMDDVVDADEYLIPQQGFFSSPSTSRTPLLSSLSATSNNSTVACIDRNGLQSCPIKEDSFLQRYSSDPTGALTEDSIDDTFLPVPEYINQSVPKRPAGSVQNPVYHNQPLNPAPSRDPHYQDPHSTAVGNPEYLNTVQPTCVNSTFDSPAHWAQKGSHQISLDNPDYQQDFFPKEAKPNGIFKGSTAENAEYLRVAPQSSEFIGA

[3] = target: Kappa-type opioid receptor (Homo sapiens) (UniProt P41145); conditions: Compound concentration 10.0 uM
Chain of Kappa-type opioid receptor (Homo sapiens) (P41145 whole entry): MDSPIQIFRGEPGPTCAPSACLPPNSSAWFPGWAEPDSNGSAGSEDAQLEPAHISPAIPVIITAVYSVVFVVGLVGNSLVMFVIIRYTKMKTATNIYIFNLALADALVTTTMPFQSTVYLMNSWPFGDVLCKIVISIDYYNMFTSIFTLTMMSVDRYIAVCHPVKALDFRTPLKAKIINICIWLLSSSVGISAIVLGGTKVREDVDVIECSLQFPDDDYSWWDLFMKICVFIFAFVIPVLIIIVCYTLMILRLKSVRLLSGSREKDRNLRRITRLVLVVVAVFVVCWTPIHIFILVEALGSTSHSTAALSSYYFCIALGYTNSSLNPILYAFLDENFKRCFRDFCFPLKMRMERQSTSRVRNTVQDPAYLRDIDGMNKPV

[4] = target: T2, Inhibitor of nuclear factor kappa-B kinase subunit epsilon (Homo sapiens) (UniProt Q14164); conditions: Compound concentration 1000.0 nM
T2 sequence (whole entry): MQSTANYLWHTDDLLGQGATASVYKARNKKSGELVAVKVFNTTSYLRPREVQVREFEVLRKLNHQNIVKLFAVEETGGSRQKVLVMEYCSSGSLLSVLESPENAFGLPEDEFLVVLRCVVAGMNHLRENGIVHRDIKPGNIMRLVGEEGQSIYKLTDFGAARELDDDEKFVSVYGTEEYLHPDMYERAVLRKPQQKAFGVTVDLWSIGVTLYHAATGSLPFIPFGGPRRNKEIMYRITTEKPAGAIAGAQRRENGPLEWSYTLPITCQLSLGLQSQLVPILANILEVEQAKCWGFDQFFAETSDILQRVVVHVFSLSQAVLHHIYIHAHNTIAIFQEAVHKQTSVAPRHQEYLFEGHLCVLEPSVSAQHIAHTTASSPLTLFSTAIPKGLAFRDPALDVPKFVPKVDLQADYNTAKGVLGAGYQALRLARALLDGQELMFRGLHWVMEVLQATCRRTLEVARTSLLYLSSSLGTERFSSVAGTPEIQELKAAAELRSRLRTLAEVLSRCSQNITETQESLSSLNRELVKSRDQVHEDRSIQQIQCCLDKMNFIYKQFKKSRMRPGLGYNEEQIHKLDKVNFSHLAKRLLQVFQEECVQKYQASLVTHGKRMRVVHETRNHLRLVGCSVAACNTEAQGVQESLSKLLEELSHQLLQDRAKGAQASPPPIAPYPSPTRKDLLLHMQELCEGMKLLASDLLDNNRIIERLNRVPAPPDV

[5] = target: Serine/threonine-protein kinase SIK1 (Homo sapiens) (UniProt P57059); conditions: Compound concentration 1000.0 nM
Chain of Serine/threonine-protein kinase SIK1 (Homo sapiens) (P57059 whole entry): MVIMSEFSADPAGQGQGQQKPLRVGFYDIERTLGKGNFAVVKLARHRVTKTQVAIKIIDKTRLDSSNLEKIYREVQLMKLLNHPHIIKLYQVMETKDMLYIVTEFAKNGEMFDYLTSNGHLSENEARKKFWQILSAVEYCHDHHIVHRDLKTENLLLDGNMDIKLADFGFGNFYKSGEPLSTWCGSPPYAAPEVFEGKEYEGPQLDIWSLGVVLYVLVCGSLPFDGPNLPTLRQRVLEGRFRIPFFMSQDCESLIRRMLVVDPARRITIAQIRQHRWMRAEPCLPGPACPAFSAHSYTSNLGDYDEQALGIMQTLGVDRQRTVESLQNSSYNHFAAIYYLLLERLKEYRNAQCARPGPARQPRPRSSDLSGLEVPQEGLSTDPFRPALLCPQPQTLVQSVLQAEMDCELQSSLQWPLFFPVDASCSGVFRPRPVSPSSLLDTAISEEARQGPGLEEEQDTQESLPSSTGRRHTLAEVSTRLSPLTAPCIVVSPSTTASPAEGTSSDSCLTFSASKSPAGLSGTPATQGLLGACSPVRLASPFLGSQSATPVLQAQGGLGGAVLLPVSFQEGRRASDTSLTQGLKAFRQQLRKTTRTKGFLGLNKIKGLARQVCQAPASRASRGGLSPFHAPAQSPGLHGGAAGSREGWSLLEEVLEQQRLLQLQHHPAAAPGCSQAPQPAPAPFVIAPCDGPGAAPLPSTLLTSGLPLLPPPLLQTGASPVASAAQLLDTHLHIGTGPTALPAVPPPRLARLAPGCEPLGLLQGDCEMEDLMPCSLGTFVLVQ

[6] = target: Tyrosine-protein kinase Yes (Homo sapiens) (UniProt P07947); conditions: Compound concentration 1000.0 nM
Chain of Tyrosine-protein kinase Yes (Homo sapiens) (P07947 2-543 limits assumed): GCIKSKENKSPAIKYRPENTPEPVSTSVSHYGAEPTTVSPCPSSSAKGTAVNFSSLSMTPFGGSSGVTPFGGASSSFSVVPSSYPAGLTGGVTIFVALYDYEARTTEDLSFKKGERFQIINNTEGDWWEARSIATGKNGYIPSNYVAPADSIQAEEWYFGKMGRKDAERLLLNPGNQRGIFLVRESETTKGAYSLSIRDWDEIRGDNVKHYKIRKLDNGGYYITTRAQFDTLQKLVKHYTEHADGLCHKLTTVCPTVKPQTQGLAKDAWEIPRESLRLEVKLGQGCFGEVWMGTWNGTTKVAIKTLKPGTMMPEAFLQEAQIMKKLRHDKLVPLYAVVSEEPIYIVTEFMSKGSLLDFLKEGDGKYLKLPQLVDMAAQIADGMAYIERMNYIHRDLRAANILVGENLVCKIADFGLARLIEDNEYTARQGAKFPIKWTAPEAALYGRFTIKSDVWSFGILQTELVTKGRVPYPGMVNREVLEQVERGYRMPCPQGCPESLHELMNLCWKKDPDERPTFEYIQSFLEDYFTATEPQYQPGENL

[7] = target: T3, Dual specificity mitogen-activated protein kinase kinase 6 (Homo sapiens) (UniProt P52564); conditions: Compound concentration 1000.0 nM
T3 sequence (whole entry): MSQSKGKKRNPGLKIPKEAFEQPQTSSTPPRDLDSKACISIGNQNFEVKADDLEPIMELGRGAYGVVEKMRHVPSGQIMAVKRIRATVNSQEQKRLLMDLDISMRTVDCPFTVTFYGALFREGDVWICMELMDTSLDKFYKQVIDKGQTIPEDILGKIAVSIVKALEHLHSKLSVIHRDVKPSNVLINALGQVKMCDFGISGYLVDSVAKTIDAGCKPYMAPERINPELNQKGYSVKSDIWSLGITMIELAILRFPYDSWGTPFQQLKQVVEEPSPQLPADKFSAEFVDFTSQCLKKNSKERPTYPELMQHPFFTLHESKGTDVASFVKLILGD

[8] = target: Casein kinase I isoform gamma-1 (Homo sapiens) (UniProt Q9HCP0); conditions: Compound concentration 1000.0 nM
Chain of Casein kinase I isoform gamma-1 (Homo sapiens) (Q9HCP0 whole entry, looked up, canonical isoform): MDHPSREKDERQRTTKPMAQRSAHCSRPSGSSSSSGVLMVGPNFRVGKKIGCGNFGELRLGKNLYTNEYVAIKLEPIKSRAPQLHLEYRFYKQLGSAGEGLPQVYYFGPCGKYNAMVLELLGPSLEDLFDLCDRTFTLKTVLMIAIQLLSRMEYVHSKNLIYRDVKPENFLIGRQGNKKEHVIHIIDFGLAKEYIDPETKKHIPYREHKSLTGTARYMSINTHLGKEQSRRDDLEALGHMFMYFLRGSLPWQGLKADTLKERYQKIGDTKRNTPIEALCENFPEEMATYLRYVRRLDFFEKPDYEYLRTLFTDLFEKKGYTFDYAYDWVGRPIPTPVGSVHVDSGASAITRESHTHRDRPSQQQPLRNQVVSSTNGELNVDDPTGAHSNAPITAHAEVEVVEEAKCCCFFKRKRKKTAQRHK

[9] = target: T4, Ephrin type-A receptor 3 (Homo sapiens) (UniProt P29320); conditions: Compound concentration 1000.0 nM
T4 sequence (whole entry): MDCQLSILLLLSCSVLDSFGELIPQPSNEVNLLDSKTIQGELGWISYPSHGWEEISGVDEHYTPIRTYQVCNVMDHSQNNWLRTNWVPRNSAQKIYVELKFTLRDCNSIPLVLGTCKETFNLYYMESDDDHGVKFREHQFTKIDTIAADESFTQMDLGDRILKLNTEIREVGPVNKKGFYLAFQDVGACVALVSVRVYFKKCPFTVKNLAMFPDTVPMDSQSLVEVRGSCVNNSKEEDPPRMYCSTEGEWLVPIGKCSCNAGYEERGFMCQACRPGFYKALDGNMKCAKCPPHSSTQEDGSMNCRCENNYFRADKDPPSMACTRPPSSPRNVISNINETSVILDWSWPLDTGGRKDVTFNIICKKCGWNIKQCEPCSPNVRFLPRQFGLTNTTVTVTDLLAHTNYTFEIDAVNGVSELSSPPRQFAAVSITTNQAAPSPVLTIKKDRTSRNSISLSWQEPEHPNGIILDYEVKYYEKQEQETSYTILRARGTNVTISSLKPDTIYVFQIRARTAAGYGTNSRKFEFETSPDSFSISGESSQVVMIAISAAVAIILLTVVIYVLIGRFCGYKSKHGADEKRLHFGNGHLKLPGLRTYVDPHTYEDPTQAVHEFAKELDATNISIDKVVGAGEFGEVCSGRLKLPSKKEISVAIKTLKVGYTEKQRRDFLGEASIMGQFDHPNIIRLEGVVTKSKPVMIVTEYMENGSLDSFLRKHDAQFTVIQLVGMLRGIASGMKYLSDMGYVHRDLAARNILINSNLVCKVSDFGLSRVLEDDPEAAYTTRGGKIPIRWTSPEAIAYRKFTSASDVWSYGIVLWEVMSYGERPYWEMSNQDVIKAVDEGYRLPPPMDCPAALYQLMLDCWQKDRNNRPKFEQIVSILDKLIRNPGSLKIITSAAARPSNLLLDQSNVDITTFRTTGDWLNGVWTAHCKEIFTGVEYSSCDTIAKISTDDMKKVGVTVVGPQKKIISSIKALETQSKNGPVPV

CC1=C(C#N)C(c2ccc3c(c2)c(NC(=O)c2ccccc2C)nn3C)C(C#N)=C(C)N1 [BAY-974]
inactive: residual activity [1] 90% | residual activity [2] 88% | inhibition [3] 21.6% | residual activity [4] 100% | residual activity [5] 88% | residual activity [6] 88% | residual activity [7] 95% | residual activity [8] 100% | residual activity [9] 99%

CCc1ccccc1C(=O)Nc1n[nH]c2c(C)c(F)c(C3C(C#N)=C(C)N(C)C(C)=C3C#N)cc12 [BAY-3827]
inactive: residual activity [1] 100% | residual activity [2] 52% | inhibition [3] 16.1% | residual activity [4] 68% | residual activity [5] 66% | residual activity [6] 86% | residual activity [7] 98% | residual activity [8] 95% | residual activity [9] 100%
